Reference: ChEMBL document CHEMBL1150920, “Three new ellagic acid derivatives from the bark of Eschweilera coriacea from the Suriname rainforest” (1998)

Tested on: Saccharomyces cerevisiae
Assay: DNA damaging activity against Sc-7 yeast assessed as drug level required to produce 12 mm zone of inhibition
Format: functional

Row | SMILES | IC12 [µg/mL]
1 | C[C@@H]1O[C@@H](Oc2cc3c(=O)oc4c(O)c(O)cc5c(=O)oc(c2O)c3c45)[C@H](O)[C@H](O)[C@H]1O [ESCHWEILENOL C] | 2000
2 | O=c1oc2c(O)c(Oc3ccc(O)c(O)c3O)cc3c(=O)oc4c(O)c(O)cc1c4c23 [ESCHWEILENOL A] | 1000
